Data taken from US11253515B2, “Pharmaceutical compositions and dosage forms” (IGNYTA, INC., priority 2017, dated 2022).

Key:
[1] = Excipient compatibility of 1:1 acid admixtures, HPLC after three months storage; format: physicochemical; conditions: 1:1 weight ratio dry powder mixture, open vial
Procedure: (§1) The mixtures were prepared in duplicate for each sample, and stored in open top, 4 mL glass vials at (1) 60° C./dry heat and (2) 40° C. and 75% relative humidity (RH).
The HPLC traces analyses were conducted on an Agilent 1100 LC, equipped with Agilent Diode Array Detector and Chemstation Software using the conditions found in the table below.

[2] = Physical state and moisture uptake of 1:1 acid admixtures on storage; format: physicochemical; conditions: 40° C. and 75% RH, open top vial
Procedure: as §1
All admixture samples and the control samples stored at the 60° C. and dry heat condition remained as dry powders.

[3] = Comparative pharmacokinetic study of F1 and F2 with lansoprazole (Example 12); format: in vivo, human; conditions: 800 mg fixed dose, 23 healthy subjects, body weights 55 to 106 kg
Procedure: A comparative pharmacokinetic study in healthy, human subjects was conducted comparing a 200 mg dosage strength of pharmaceutical composition F1 (as described in Example 11) with a 200 mg dosage strength pharmaceutical composition F2 (as described in Example 10).
Pharmaceutical compositions F1 and F2, along with and lansoprazole, were administered orally with approximately 240 mL of water, according to the randomization scheme. Lansoprazole was administered as 30 mg lansoprazole delayed-release capsules.
Subjects were randomized into two groups, A and B. Periods 1 and 2 were conducted as a crossover design under fasting conditions where all subjects received F1 and F2. […] A representative summary of Periods 1, 2, and 3 and the pharmaceutical compositions subjects in groups A and B will receive in each Period is found below.
Lansoprazole administration on days 1 to 9 was conducted in the morning, approximately 1.5 hours prior to administration of either F1 or F2 at hour 0 on day 4.
Subjects were randomized and received 3 out of 4 treatments in one of the following sequences: […] (i.e., Periods 1 and 2 were conducted as a crossover design under fasting conditions [Treatments A and B]). […] Each subject received each of the 3 assigned treatments on one occasion.
Treatments A and C utilized 200 mg strength F1 capsules.
Treatments B and D utilized 200 mg F2 capsules. […]

[4] = Single-dose food effect study in dogs; format: in vivo; conditions: formulation that did not comprise at least one acidulant
Text: Such food effects can cause difficulty during human testing of drugs as the fed or fasted condition of the patient can cause exposure or bioavailability of drugs to vary widely.

[5] = human, in vivo
[6] = target: TrkB (Homo sapiens, UniProt Q16620); conditions: background statement; cited from earlier work
[7] = target: TrkC (Homo sapiens, UniProt Q16288); conditions: background statement; cited from earlier work
[8] = target: anaplastic lymphoma kinase (ALK) (Homo sapiens, UniProt Q9UM73); conditions: background statement; cited from earlier work
[9] = three months at 60° C. Dry Heat

Sequence of TrkC (Q16288 32-839): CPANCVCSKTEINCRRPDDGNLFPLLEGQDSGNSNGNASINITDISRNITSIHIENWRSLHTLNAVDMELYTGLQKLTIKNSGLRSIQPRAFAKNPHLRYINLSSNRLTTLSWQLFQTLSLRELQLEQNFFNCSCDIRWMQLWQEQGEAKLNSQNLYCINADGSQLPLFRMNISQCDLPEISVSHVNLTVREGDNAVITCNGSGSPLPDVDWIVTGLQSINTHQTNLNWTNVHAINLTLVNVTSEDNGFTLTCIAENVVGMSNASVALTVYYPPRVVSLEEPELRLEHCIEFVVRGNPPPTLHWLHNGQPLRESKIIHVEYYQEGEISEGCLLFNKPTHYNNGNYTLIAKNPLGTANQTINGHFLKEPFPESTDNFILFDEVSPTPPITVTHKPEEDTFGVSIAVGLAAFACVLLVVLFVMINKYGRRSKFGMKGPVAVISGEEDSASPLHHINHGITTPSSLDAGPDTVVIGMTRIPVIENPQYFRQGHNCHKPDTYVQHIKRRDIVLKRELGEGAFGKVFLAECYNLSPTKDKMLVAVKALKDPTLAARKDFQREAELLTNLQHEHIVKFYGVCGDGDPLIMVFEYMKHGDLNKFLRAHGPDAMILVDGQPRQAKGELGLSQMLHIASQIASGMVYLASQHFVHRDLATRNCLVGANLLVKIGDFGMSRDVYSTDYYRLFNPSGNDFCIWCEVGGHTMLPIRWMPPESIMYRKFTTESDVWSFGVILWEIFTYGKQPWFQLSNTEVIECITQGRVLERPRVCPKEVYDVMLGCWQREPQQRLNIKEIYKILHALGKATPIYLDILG
Sequence of TrkB (Q16620 32-822): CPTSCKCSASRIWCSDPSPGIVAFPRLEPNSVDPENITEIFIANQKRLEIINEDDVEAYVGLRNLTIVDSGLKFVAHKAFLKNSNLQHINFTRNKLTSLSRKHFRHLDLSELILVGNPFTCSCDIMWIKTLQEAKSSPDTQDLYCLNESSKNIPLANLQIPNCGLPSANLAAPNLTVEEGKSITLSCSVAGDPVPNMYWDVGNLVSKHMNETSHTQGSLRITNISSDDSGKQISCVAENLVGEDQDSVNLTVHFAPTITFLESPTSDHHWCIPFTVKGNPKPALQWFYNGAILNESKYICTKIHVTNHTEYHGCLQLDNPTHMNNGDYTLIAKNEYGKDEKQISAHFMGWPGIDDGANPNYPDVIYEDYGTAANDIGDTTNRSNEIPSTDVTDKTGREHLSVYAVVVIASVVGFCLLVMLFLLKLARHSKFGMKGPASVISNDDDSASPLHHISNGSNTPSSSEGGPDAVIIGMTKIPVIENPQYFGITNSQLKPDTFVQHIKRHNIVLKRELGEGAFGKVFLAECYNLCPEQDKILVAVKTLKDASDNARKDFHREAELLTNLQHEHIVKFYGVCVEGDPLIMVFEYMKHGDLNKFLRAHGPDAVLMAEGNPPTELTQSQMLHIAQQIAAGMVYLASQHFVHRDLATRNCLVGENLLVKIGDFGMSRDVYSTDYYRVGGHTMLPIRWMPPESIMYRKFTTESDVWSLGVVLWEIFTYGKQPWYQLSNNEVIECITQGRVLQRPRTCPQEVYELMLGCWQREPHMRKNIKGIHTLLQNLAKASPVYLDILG
Sequence of anaplastic lymphoma kinase (ALK) (Q9UM73 19-1620): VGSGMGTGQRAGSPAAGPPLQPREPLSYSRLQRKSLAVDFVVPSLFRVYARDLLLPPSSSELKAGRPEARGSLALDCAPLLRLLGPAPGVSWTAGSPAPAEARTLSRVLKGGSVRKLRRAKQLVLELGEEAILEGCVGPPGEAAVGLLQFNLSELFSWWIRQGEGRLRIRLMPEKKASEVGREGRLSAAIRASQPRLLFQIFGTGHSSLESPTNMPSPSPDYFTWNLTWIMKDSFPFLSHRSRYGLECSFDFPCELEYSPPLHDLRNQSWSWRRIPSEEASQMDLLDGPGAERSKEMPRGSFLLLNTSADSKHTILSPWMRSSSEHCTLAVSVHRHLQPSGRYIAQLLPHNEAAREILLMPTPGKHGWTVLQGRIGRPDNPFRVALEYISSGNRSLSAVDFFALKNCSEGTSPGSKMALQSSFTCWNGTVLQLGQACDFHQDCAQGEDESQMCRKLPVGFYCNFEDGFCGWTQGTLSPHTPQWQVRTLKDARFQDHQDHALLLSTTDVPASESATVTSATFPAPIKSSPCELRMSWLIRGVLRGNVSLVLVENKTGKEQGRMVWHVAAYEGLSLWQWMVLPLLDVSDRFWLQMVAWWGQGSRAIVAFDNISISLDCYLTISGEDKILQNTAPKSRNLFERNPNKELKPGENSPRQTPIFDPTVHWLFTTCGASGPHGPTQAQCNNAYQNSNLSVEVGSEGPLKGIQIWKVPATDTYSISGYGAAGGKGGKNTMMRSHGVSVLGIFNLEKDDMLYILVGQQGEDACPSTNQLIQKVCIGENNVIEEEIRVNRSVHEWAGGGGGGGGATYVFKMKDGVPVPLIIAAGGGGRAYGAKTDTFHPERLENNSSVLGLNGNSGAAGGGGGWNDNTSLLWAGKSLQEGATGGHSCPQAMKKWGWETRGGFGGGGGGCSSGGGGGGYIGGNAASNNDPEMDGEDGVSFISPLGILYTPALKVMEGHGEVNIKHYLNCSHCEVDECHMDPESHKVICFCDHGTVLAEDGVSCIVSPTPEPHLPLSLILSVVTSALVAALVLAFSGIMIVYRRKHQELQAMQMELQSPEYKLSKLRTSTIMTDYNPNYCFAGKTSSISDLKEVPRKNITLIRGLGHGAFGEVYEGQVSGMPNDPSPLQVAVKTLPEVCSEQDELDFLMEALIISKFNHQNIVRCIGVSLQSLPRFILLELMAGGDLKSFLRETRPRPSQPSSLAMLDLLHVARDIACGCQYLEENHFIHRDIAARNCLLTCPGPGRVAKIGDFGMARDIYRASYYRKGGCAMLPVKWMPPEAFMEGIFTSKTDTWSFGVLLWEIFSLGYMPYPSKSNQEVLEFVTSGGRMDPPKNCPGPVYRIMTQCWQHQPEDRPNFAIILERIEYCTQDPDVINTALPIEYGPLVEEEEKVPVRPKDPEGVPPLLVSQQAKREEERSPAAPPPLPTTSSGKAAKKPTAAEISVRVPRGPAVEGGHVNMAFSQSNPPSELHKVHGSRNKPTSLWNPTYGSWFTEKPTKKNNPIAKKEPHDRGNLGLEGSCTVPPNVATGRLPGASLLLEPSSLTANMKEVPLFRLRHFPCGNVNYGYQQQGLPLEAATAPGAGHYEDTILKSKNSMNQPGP

% UV Purity ([1]; three months at 40° C./75% RH): 99.2% | Most abundant impurity (area %) ([1]; three months at 40° C./75% RH, listed as Control): 0.13% | Most abundant impurity (area %) ([1]; three months at 40° C./75% RH, listed as control): 0.13% | % UV Purity [1, 9]: 99.3% | Most abundant impurity (area %) [1, 9]: 0.13% | physical state after 13 days of storage [2]: remained dry | exposure levels under fed conditions compared to fasting conditions [4]: approximately 2 fold | exposures with concomitant proton pump inhibitor drugs (PPIs), such as lansoprazole [5]: variable | AUC higher when taken with food ([5]; 400 mg/m2): ~50% | Cmax higher with food ([5]; 400 mg/m2): approximately 150%
Structure (SMILES): CN1CCN(c2ccc(C(=O)Nc3n[nH]c4ccc(Cc5cc(F)cc(F)c5)cc34)c(NC3CCOCC3)c2)CC1 [N-[5-(3,5-difluorobenzyl)-1H-indazol-3-yl]-4-(4-methyl-piperazin-1-yl)-2-(tetrahydro-pyran-4-ylamino)-benzamide]
correlation of total exposure with body weight or body surface area [3]: did not correlate with body weight or body surface area | inhibition of tyrosine kinase [6]: potent inhibitor | inhibition of tyrosine kinase [7]: potent inhibitor | inhibition of tyrosine kinase [8]: potent inhibitor
